Experimental data: patent US20250313535A1, “ALPHA 4 BETA 7 INTEGRIN MODULATORS AND USES THEREOF” (DICE MOLECULES SV, INC., priority 2022, published 2025)

What follows are compounds tested against α4β7 integrin (Homo sapiens (Human), UniProt P13612+P26010) (assay: Integrin Adhesion Assay: Protocol 4 (MAdCAM-coated plate, RPMI-8866 cells with stable LOF mutation of the ITGB1 gene)). Details: Protocol 4; RPMI-8866 cells with LOF mutation of ITGB1, MAdCAM; read-out: Mean IC50 α4β7 KO.
Format: cell-based
Experimental: (§1) Integrin Adhesion Assay Using Genetically Modified Cells Generating Stable Cell Lines with ITGB1 or ITGB7 Knockout (Protocol 4 and Protocol 5)
(§2) To obtain subclones of the RPMI-8866 cell line (Sigma-Aldrich, St. Louis, MO) that were individually deficient in either integrin β1 or integrin β 7, CRISPR/Cas9 technology was employed (PMID: 30108345). Specifically, a Neon™ Transfection System System 10 μL Kit and the Neon™ Transfection device (both from ThermoFisher Scientific) were used.
(§3) The protocol was performed following the manufacturer instructions, described in https://www.thermofisher.com/document-connect/document-connect.html?url=https % 3A%2F%2F assets.thermofisher.com%2FTFS-Assets%2FLSG%2Fmanuals%2FMAN0017066_TrueCut Cas9_Protein_v2_UG.pdf, which is incorporated by reference herein in its entirety.
(§4) RPMI-8866 cells were transferred to a flask the day before transfection, at a confluence of 5×10^5 cells/mL. The cells were washed with PBS and resuspended in buffer R (Neon™ Transfection System, Invitrogen) to 2×10^5 cells/10 uL for each reaction. The TrueCut™ HiFi Cas9 Protein (1250 ng per reaction) was mixed with TrueGuide™ sgRNA (7.5 pmoles each/pool of 3 sequences, table 1) (ThermoFisher Scientific). This mix was combined with the RPMI-8866 cells and electroporated on the Neon system at 1700V/20 ms/1 pulse. Transfected cells were allowed to recover in 500 μL pre-warmed cRMPI media (RPMI-1640 media with 10% FBS, 100 U/ml Penicillin-Streptomycin) at 37° C., 5% CO2 for 24 hours. At that time, an extra 500 μL of pre-warmed cRMPI media was added, and cells were incubated for another 24 hours.
(§5) For flow cytometry analysis, 100 μL of the transfected cells were collected and stained with anti-itga4 (Clone: 9F10, PE, BD Pharmingen™), anti-itgb 1 (Clone: (TS2/16), Super Bright 436, eBioscience), anti-itgb7 (Clone: FIB504, Brilliant Violet 650, BD Pharmingen™) and viability dye (LIVE/DEAD™ Fixable Green Dead Cell Stain, Invitrogen™). An Attune NxT Flow Cytometer was used to analyze the CRISPR-transfected cells. The flow cytometry results were analyzed using FlowJo™ v10.8.1 Software (BD Life Sciences). Fluorescence minus one (FMO) controls were used to select appropriate gates for data analysis.
(§6) To generate an individual clones of cells deficient in either ITGB7 or ITGB1 by limiting dilution assay, the transfected cells were resuspended at 5 cells/mL and seeded in 384 well plates. Outgrowth of clones was monitored using a microscope, and 24 clones were transferred for expansion. Expression of either integrin was verified by flow cytometry in each of the clones. One clone of each integrin b7 or the integrin b1 knockout was chosen, expanded and aliquots were frozen in vapor phase liquid nitrogen.
Integrin Adhesion Assay: Protocol 4
(§7) MAdCAM (R&D Systems, 0.1 ug) was diluted in 50 μL PBS, added to each well of an opaque ELISA plate (Thermo), and incubated overnight at 4° C. Coated plates were washed once with PBS and then blocked with 200 μL of assay buffer (10 mM HEPES, 150 mM NaCl, 1 mM MnCl2, 0.1 mM CaCl2), 1% BSA) for 1 hour at 37° C. and 5% CO2. After incubation, buffer was aspirated from the plates and 50 μL of fresh assay buffer was added. Compounds were added using a compounds dispenser (Tecan), and DMSO concentration was normalized to 1% across each plate. 50 μL of RPMI-8866 cells with a stable loss of function (LOF) mutation of the ITGB1 gene (2×10^6 per mL) were added to each well and the plates were incubated for 1 hour at 37° C. at a CO2 concentration of 5%. After incubation, plates were allowed to cool to RT for 10 minutes before being washed four times in assay buffer by an automated plate washer (BioTek). After washing, 100 μL of a 1:1 mixture of assay buffer and CellTiter GLO 2.0 reagent (Promega) were added to each well. Plates were mixed for 2 minutes at 1000 rpm and then allowed to incubate an additional 10 minutes before reading out luminescence on a Tecan Spark plate reader. […]

Sequence of α4β7 integrin (P13612 34-1032): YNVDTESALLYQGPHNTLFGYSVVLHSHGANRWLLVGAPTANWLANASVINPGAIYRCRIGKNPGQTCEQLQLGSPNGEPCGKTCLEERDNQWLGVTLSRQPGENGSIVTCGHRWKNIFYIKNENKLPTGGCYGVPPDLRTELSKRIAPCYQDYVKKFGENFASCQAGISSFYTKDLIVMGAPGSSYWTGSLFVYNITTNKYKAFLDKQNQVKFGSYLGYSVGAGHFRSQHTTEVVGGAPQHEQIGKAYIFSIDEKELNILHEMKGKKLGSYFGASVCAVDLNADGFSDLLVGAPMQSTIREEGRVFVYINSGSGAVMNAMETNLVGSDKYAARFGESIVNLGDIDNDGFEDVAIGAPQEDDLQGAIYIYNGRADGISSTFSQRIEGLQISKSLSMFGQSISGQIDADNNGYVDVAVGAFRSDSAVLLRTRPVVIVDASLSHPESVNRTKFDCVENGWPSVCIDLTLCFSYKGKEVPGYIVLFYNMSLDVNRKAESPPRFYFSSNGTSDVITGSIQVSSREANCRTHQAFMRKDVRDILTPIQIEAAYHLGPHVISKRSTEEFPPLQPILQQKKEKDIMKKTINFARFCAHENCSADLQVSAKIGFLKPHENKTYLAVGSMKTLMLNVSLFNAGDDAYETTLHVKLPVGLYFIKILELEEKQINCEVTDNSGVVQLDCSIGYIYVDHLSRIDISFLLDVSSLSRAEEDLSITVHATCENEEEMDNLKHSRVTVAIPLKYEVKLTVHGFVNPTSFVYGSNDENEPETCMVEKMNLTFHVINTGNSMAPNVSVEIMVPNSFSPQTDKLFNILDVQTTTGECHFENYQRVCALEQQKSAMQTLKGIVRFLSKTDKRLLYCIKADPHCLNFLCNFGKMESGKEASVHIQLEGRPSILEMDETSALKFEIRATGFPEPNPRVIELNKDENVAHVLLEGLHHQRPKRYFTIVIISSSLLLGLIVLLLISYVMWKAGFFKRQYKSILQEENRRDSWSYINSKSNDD
Sequence of α4β7 integrin (P26010 20-798): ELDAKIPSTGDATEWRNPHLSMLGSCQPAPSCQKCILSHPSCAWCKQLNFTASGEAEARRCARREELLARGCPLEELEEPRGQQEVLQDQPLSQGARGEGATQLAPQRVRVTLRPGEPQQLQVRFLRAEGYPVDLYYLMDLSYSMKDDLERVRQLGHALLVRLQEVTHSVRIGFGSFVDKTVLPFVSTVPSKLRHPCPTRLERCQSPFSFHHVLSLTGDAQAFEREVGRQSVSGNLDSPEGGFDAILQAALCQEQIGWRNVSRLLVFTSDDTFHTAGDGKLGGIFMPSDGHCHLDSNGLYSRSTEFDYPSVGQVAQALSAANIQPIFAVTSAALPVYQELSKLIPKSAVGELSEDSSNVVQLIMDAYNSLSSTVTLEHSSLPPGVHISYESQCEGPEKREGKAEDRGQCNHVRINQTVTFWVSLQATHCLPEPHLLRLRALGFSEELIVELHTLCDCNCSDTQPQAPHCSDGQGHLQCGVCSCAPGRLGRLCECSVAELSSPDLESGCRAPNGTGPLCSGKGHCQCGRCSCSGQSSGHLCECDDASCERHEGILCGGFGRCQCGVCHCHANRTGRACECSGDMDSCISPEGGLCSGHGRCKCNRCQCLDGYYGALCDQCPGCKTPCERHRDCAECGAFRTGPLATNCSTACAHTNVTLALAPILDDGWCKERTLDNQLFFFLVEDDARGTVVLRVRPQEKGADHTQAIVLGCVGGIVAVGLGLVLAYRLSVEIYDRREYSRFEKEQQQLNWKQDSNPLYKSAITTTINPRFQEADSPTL

Compound | IC50
COc1cc(CN2CCC(C(F)(F)F)CC2)cnc1-c1cccc2c(C[C@H](NC(=O)C3(C(F)(F)F)CCN(CC(F)(F)F)CC3)C(=O)O)cccc12 [Compound 889] | < 10 nM
O=C(O)[C@H](Cc1cccc2c(-n3cccc(C(F)(F)F)c3=O)cccc12)NC(=O)C1(C(F)(F)F)CCN(CC(F)(F)F)CC1 [Compound 1055] | 100 to 1000 nM
CC1(C)CCN(Cc2cnc(-c3cccc4c(C[C@H](NC(=O)C5(C(F)(F)F)CCN(C6COC6)CC5)C(=O)O)cccc34)c3ccccc23)CC1 [Compound 686] | < 10 nM
O=C(O)[C@H](Cc1cccc2c(-c3nccc4ccc(CCCN5CC6(CCC6)C5)cc34)cccc12)NC(=O)C1(C(F)(F)F)CCN(CC(F)(F)F)CC1 [Compound 745] | < 10 nM
CN1CCc2nc(-c3cccc4c(C[C@H](NC(=O)C5(C(F)(F)F)CCN(CC(F)(F)F)CC5)C(=O)O)cccc34)ccc2C1 [Compound 755] | < 10 nM
COc1c(CN2CCCCC2)ccc(C(F)(F)F)c1-c1cccc2c(C[C@H](NC(=O)c3c(C)cccc3F)C(=O)O)cccc12 [Compound 1022] | 10 to 100 nM
Cc1cc(CN2CCN(C3CC3)CC2)cnc1-c1cccc2c(C[C@H](NC(=O)C3(C(F)(F)F)CCN(CC(F)F)CC3)C(=O)O)cccc12 [Compound 899] | < 10 nM
O=C(O)[C@H](Cc1cccc2c(-c3ncc(CN4CCCCC4)cc3C(F)(F)F)cccc12)NC(=O)C1(C(F)(F)F)CCN(CC(F)F)CC1 [Compound 897] | < 10 nM
O=C(O)[C@H](Cc1cccc2c(-c3ncc(CN4CCC(F)(F)CC4)c4ccccc34)cccc12)NC(=O)C1(C(F)(F)F)CCN(CC(F)F)CC1 [Compound 906] | < 10 nM
Cn1c(=O)c(-c2cccc3c(C[C@H](NC(=O)C4(C)C5CC4CN(CC(F)(F)F)C5)C(=O)O)cccc23)c(C(F)(F)F)c2ccccc21 (stereo partly shown) [Compound 1048] | 100 to 1000 nM
COc1ccc(CN2CCC(C)(C)CC2)cc1-c1cccc2c(C[C@H](NC(=O)C3(C(F)(F)F)CCN(CC(F)(F)F)CC3)C(=O)O)cccc12 [Compound 941] | < 10 nM

Same assay, conditions: RPMI-8866 cells with stable LOF mutation of the ITGB1 gene; read-out: Mean IC50 α4β7 KO^a

Compound | IC50
O=C(N[C@@H](Cc1cccc2c(-c3ncc(CN4CCCCC4)c4ccccc34)cccc12)C(=O)O)c1c(F)cccc1F [Compound 678] | 10 to 100 nM
Cn1c(=O)c(-c2cccc3c(C[C@H](NC(=O)C45CC(NCC(F)(F)F)(C4)C5)C(=O)O)cccc23)c(C(F)(F)F)c2ccccc21 [Compound 446] | > 1000 nM
CC1CC(C)(C(=O)N[C@@H](Cc2cccc3c(-c4c(C(F)(F)F)c5ccccc5n(C)c4=O)cccc23)C(=O)O)CCN1CC(F)(F)F (stereo partly shown) [Compound 528] | > 1000 nM
O=C(N[C@@H](Cc1cccc2c(-c3cccc4ccncc34)cccc12)C(=O)O)c1c(F)cccc1F [Compound 295] | > 1000 nM

What follows are compounds tested against α4β1 integrin (Homo sapiens (Human), UniProt P05556+P13612) (assay: Integrin Adhesion Assay: Protocol 5 (VCAM-coated plate, RPMI-8866 cells with stable LOF mutation of the ITGB7 gene)). Details: Protocol 5; RPMI-8866 cells with LOF mutation of ITGB7, VCAM; read-out: Mean IC50 α4β1 KO.
Sequence of α4β1 integrin (P13612 34-1032): as the sequence (P13612 34-1032) above
Sequence of α4β1 integrin (P05556 21-798): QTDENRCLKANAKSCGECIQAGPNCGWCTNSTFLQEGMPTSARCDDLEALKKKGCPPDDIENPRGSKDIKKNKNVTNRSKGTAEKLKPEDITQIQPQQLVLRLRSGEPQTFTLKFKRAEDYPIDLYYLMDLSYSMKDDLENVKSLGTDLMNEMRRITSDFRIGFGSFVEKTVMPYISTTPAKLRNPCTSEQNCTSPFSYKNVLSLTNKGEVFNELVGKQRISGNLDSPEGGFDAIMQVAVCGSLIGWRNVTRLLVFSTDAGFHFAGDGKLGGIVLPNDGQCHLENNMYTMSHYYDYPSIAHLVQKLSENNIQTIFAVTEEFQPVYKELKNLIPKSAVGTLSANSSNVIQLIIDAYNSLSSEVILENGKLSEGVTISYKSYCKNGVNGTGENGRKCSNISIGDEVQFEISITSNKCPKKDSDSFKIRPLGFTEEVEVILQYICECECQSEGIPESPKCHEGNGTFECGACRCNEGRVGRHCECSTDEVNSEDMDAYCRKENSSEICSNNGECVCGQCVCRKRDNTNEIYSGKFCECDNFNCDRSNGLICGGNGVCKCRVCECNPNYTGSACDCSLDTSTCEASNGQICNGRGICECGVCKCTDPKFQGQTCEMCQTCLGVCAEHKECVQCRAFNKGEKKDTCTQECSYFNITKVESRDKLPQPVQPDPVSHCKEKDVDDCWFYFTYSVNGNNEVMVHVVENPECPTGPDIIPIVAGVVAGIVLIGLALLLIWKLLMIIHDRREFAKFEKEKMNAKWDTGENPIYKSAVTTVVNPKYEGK
Format: cell-based
Experimental: as §1, §2, §3, §4, §5, §6
Integrin Adhesion Assay: Protocol 5
as §7, with “VCAM” for “MAdCAM”, “by” for “using a”, “(Tecan)” for “(Tecan),”, “LOF” for “loss of function (LOF)”, “ITGB7” for “ITGB1”, “and 5% CO2.” for “at a CO2 concentration of 5%.”

Compound | IC50
Cc1cccc(F)c1C(=O)N[C@@H](Cc1cccc2c(-c3ccccc3OCCN3CCCCC3)cccc12)C(=O)O [Compound 1007] | > 1000 nM
O=C(O)[C@H](Cc1cccc2c(-c3cccc4cnoc34)cccc12)NC(=O)C1(C(F)(F)F)CCN(CC(F)(F)F)CC1 [Compound 772] | > 1000 nM
Cn1c(=O)c(-c2cccc3c(C[C@H](NC(=O)c4c(F)cccc4F)C(=O)O)cccc23)c(C(F)(F)F)c2cc(CCN3CC(F)C3)ccc21 [Compound 715] | > 1000 nM
COc1cccc(CN2CCCCC2)c1-c1cccc2c(C[C@H](NC(=O)c3c(F)cccc3-c3ccccc3)C(=O)O)cccc12 [Compound 693] | > 1000 nM
Cc1cccc(F)c1C(=O)N[C@@H](Cc1cccc2c(-c3c(C(F)(F)F)c4cc(CN5CCC(F)(F)CC5)ccc4n(C)c3=O)cccc12)C(=O)O [Compound 1032] | > 1000 nM
Cc1cccc(F)c1C(=O)N[C@@H](Cc1cccc2c(-c3ncc(CN4CCC(F)(F)CC4)c4ccccc34)cccc12)C(=O)O [Compound 1031] | > 1000 nM
COc1cc2ccccc2cc1-c1cccc2c(C[C@H](NC(=O)C3(C(F)(F)F)CCN(CC(F)(F)F)CC3)C(=O)O)cccc12 [Compound 775] | > 1000 nM
CN(Cc1cnc(-c2cccc3c(C[C@H](NC(=O)C4(C(F)(F)F)CCN(CC(F)(F)F)CC4)C(=O)O)cccc23)c2ccccc12)CC(F)(F)F [Compound 895] | > 1000 nM
O=C(O)[C@H](Cc1cccc2c(-c3cccc4ncoc34)cccc12)NC(=O)C1(C(F)(F)F)CCN(CC(F)(F)F)CC1 [Compound 771] | > 1000 nM
O=C(O)[C@H](Cc1cccc2c(-c3cccc4ocnc34)cccc12)NC(=O)C1(C(F)(F)F)CCN(CC(F)(F)F)CC1 [Compound 770] | > 1000 nM
CC[C@@H]1CCCCN1Cc1cnc(-c2cccc3c(C[C@H](NC(=O)C4(C(F)(F)F)CCN(CC(F)F)CC4)C(=O)O)cccc23)c2ccccc12 [Compound 932] | 100 to 1000 nM
O=C(O)[C@H](Cc1cccc2c(-c3c(CN4CCCCC4)ccc4cccnc34)cccc12)NC(=O)C1(C(F)(F)F)CCN(CC(F)(F)F)CC1 [Compound 767] | > 1000 nM
COc1c(-c2cccc3c(C[C@H](NC(=O)C4(C(F)(F)F)CCN(CC(F)(F)F)CC4)C(=O)O)cccc23)ccc2ccccc12 [Compound 776] | > 1000 nM
COc1ccc(CCN2CCCC(F)C2)c(OC)c1-c1cccc2c(C[C@H](NC(=O)C3(C(F)(F)F)CCN(CC(F)(F)F)CC3)C(=O)O)cccc12 (stereo partly shown) [Compound 826] | 100 to 1000 nM
COc1ccc(CN2CCC(C(F)(F)F)CC2)cc1-c1cccc2c(C[C@H](NC(=O)C3(C(F)(F)F)CCN(CC(F)F)CC3)C(=O)O)cccc12 [Compound 939] | 100 to 1000 nM
CN(Cc1cnc(-c2cccc3c(C[C@H](NC(=O)C4(C(F)(F)F)CCN(CC(F)F)CC4)C(=O)O)cccc23)c2ccccc12)CC(F)(F)F [Compound 923] | > 1000 nM
COc1c(-c2cccc3c(C[C@H](NC(=O)C4(C(F)(F)F)CCN(CC(F)(F)F)CC4)C(=O)O)cccc23)cc(CN2CCCCC2)cc1C(F)(F)F [Compound 769] | > 1000 nM

Same assay, conditions: RPMI-8866 cells with stable LOF mutation of the ITGB7 gene; read-out: Mean IC50 α4β1 KO^b

Compound | IC50
CN(C)Cc1cccc2c(-c3cccc4c(C[C@H](NC(=O)c5c(F)cc(N6CCOC[C@@H]6C(F)(F)F)cc5CN5CCC(N(C)C)CC5)C(=O)O)cccc34)nccc12 [Compound 434] | > 1000 nM
Cn1c(=O)c(-c2cccc3c(C[C@H](NC(=O)C4(C(F)(F)F)CCN([C@H]5CCOC5)CC4)C(=O)O)cccc23)c(C(F)(F)F)c2ccccc21 [Compound 458] | 100 to 1000 nM
